From ChEMBL document CHEMBL1221361, “Substituted biaryl oxazoles, imidazoles, and thiazoles as sodium channel blockers” (Bioorg Med Chem Lett, 2010)
Values joined by “and” are separate entries in the source; they are usually repeats but may differ in a detail not shown here. Equal entries are not always repeated. Values belong to the compound of their own block, whether it stands above or below them.

Tests used:
[1] = target: T1, Sodium channel protein type 9 subunit alpha (Homo sapiens, UniProt Q15858); assay: Binding affinity to human Nav1.7
Target sequence in this assay (Q15858 whole entry): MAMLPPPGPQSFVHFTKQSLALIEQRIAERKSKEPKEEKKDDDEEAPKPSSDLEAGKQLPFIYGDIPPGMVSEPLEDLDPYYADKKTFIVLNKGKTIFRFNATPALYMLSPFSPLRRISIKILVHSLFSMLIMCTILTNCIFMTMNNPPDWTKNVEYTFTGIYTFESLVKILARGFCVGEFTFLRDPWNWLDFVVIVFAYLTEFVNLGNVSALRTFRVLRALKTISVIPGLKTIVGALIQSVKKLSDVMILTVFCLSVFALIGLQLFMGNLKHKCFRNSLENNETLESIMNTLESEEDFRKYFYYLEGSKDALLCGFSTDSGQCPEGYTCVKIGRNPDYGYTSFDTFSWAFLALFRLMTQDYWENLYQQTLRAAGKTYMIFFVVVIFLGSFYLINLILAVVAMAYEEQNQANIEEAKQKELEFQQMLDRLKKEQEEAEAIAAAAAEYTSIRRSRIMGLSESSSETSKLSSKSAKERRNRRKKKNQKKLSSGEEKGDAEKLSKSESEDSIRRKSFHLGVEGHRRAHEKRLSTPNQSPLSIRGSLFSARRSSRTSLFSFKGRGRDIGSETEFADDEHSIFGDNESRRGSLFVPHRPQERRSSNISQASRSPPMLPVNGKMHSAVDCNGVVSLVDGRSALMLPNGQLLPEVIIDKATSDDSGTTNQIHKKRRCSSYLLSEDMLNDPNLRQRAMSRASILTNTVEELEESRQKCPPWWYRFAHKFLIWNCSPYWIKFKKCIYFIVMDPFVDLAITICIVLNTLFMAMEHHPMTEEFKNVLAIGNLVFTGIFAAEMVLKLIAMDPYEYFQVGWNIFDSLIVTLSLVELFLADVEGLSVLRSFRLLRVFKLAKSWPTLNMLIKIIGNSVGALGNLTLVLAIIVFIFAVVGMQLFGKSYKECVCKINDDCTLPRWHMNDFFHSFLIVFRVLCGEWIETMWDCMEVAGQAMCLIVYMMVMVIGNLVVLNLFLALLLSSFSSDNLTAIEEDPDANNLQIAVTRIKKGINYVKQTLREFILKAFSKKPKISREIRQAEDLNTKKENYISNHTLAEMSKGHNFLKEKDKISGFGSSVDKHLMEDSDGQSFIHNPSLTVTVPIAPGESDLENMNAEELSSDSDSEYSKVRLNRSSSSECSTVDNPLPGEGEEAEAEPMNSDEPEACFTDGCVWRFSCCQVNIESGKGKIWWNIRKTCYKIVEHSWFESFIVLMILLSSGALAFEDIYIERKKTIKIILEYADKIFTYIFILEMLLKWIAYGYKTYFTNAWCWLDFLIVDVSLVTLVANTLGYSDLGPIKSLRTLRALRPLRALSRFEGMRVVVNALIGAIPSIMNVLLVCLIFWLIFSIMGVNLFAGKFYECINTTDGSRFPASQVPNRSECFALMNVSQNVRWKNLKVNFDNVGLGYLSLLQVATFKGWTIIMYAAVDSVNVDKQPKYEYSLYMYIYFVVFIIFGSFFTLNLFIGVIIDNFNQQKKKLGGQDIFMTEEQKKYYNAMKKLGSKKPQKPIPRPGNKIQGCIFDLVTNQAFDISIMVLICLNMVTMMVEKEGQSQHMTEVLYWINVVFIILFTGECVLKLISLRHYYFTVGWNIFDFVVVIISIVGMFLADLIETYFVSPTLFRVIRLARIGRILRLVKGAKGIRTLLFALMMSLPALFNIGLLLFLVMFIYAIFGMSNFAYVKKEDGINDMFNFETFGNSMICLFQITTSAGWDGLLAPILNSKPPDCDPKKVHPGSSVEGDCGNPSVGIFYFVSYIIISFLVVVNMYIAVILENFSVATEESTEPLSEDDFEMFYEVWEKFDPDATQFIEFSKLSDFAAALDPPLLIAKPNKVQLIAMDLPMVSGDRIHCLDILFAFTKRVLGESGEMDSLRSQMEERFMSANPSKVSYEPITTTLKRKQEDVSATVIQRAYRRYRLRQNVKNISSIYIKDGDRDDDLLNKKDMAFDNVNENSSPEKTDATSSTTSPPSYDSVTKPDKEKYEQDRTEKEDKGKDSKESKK

[2] = target: T1, Sodium channel protein type 9 subunit alpha; assay: Blockade of human Nav1.7 by voltage ion probe reader based FRET assay
Target sequence in this assay (Q15858 whole entry): as above

[3] = target: T1, Sodium channel protein type 9 subunit alpha; assay: Blockade of human Nav1.7 at 1 uM by voltage ion probe reader based FRET assay
Target sequence in this assay (Q15858 whole entry, looked up): as the sequence (Q15858 whole entry) above

[4] = Half life in rat plasma at 1 to 3 mg/kg; assay type: ADME, organism-based; parameters: dose 1-3 mg/kg
[5] = Oral bioavailability in rat at 1 to 3 mg/kg; assay type: ADME, organism-based; conditions: in vivo
[6] = Clearance in rat plasma at 1 to 3 mg/kg; assay type: ADME, organism-based; parameters: dose 1-3 mg/kg
[7] = target: T1, Sodium channel protein type 9 subunit alpha; assay: Blockade of human Nav1.7 by electrophysiology assay
Target sequence in this assay (Q15858 whole entry): as above

Cytochrome P450 3A4 = Cytochrome P450 3A4 (Homo sapiens, UniProt P08684); assay: Inhibition of CYP3A4; assay type: ADME
Chain of Cytochrome P450 3A4 (P08684 whole entry): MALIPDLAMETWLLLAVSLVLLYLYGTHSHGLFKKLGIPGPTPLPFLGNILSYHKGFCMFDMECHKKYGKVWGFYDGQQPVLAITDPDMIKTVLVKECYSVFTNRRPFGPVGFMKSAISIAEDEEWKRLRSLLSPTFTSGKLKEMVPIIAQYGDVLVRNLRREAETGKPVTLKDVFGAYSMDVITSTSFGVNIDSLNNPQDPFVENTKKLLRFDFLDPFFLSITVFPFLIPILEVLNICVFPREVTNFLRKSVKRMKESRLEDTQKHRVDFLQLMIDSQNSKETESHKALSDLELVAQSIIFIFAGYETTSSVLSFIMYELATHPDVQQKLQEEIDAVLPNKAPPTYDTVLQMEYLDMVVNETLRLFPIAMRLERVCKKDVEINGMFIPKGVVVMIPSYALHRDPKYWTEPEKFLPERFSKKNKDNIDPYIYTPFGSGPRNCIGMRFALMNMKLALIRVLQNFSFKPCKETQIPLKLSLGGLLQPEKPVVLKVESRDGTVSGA

Cytochrome P450 2D6 = Cytochrome P450 2D6 (Homo sapiens, UniProt P10635); assay: Inhibition of CYP2D6; assay type: ADME
Chain of Cytochrome P450 2D6 (P10635 whole entry): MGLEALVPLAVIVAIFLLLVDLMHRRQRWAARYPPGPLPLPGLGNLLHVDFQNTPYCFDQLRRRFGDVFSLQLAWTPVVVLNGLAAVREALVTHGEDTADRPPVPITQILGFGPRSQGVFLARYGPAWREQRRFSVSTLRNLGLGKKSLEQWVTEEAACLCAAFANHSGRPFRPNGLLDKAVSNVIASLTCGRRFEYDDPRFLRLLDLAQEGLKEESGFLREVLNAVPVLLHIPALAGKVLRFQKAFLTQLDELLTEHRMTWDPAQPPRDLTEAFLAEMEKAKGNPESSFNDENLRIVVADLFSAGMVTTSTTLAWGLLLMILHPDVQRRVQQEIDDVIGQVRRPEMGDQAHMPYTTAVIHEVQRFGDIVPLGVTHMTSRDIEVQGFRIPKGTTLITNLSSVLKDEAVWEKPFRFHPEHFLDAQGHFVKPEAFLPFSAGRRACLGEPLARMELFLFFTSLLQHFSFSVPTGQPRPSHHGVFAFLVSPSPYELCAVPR

hERG (KCNH2) = hERG (KCNH2) (Homo sapiens, UniProt Q12809); assay: Displacement of radiolabeled MK-0499 from human ERG at 1 uM; conditions: probe radiolabeled MK-0499
Chain of hERG (KCNH2) (Q12809 whole entry): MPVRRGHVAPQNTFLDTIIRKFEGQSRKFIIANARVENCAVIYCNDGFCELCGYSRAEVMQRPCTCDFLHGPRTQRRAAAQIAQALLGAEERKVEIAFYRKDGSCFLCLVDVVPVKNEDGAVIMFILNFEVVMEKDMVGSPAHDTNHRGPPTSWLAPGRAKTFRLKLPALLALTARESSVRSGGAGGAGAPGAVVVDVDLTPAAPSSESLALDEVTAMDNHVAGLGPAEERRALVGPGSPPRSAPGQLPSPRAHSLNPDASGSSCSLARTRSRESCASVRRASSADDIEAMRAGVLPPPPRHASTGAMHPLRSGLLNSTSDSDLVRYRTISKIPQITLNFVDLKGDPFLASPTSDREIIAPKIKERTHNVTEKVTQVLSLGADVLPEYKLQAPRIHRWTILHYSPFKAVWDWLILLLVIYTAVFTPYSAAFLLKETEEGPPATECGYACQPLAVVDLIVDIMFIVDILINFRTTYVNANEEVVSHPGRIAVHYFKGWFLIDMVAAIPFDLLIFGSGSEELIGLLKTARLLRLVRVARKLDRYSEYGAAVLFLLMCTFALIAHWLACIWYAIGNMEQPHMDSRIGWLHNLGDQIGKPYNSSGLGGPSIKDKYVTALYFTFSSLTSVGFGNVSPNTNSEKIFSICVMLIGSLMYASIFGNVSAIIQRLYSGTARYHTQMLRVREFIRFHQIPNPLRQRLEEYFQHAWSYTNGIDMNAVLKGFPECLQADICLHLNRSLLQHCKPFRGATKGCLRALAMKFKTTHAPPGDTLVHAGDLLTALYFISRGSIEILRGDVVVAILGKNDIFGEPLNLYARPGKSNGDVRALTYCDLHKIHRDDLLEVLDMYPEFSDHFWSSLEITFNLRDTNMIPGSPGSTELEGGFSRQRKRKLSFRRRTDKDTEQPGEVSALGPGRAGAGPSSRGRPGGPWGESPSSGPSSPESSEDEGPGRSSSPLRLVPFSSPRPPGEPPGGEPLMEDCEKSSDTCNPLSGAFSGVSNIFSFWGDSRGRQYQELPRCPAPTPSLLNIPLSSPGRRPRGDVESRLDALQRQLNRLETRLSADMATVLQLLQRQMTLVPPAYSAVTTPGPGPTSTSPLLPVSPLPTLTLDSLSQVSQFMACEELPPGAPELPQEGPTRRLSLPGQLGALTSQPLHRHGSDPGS

Cytochrome P450 2C9 = Cytochrome P450 2C9 (Homo sapiens, UniProt P11712); assay: Inhibition of CYP2C9; assay type: ADME
Chain of Cytochrome P450 2C9 (P11712 whole entry): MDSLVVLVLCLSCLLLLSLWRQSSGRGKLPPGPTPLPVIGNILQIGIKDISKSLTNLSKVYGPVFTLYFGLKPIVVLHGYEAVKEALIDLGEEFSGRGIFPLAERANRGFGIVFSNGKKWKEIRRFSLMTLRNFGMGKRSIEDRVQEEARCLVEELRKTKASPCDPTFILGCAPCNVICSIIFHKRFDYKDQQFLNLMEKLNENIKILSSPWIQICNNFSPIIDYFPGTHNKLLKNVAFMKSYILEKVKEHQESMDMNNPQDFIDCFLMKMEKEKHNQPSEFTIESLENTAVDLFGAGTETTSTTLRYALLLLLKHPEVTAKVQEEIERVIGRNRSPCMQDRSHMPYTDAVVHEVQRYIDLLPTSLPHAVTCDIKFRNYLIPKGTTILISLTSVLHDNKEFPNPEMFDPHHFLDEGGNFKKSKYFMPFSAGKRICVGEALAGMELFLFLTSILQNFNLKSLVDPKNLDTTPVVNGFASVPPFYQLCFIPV

[8] = Clearance in rat plasma at 1 to 2 mg/kg; assay type: ADME, organism-based; parameters: dose 1-2 mg/kg
[9] = Oral bioavailability in rat at 1 to 2 mg/kg; assay type: ADME, organism-based; conditions: in vivo
[10] = Half life in rat plasma at 1 to 2 mg/kg; assay type: ADME, organism-based; parameters: dose 1-2 mg/kg
[11] = Metabolic stability in dog hepatocytes assessed as compound remaining after 2 hrs; assay type: ADME, cell-based, Canis lupus familiaris, Hepatocyte; conditions: read-out: INH
Rattus norvegicus = assay: Analgesic activity rat spinal nerve ligation Chung model assessed as reversal of mechanical allodynia at 10 mg/kg, po administered 14 days after surgery measured 2 hrs after postdose; assay type: functional
[12] = Metabolic stability in rat liver S9 microsomes assessed as compound remaining after 1 hr; assay type: ADME, Microsome; conditions: read-out: INH
[13] = Metabolic stability in human liver S9 microsomes assessed as compound remaining after 1 hr; assay type: ADME, Microsome; conditions: read-out: INH
[14] = Metabolic stability in dog liver S9 microsomes assessed as compound remaining after 1 hr; assay type: ADME, Canis lupus familiaris, Microsome; conditions: read-out: INH

Structure (SMILES): NC(=O)c1nc(-c2cccc(-c3ccccc3OC(F)(F)F)c2)co1
IC50 [2]: 2360 nM

Structure (SMILES): Cn1cc(-c2cc(-c3ccccc3OC(F)(F)F)ccc2F)nc1C(N)=O
inhibition [3]: 15%

Structure (SMILES): FC(F)(F)Oc1ccccc1-c1cccc(-c2csc(-c3ncc[nH]3)n2)c1
IC50 [2]: 950 nM

Structure (SMILES): CC(=O)Nc1nc(-c2cccc(-c3ccccc3OC(F)(F)F)c2)cs1
inhibition [3]: 5%

Structure (SMILES): CN(C)C(=O)Nc1nc(-c2cccc(-c3ccccc3OC(F)(F)F)c2)cs1
inhibition [3]: 6.6%

Structure (SMILES): FC(F)(F)Oc1ccccc1-c1cccc(-c2csc(-c3ncco3)n2)c1
inhibition [3]: 27%

Structure (SMILES): NC(=O)c1nc(-c2ccc(-c3ccccc3OC(F)(F)F)cc2)cs1
inhibition [3]: 6.1%

Structure (SMILES): NC(=O)c1nc(-c2cccc(-c3ccccc3C(F)(F)F)c2)c[nH]1
half-life [4]: 30 min | bioavailability [5]: 46% | clearance [6]: 23 mL/min/kg | IC50 [7]: 270 nM | IC50 (Cytochrome P450 3A4): > 40000 nM | inhibition [3]: 55% | IC50 (Cytochrome P450 2D6): > 40000 nM | inhibition at 1 µM (hERG (KCNH2)): 25% | IC50 (Cytochrome P450 2C9): > 40000 nM

Structure (SMILES): FC(F)(F)c1ccccc1-c1cccc(-c2c[nH]cn2)c1
clearance [8]: 32 mL/min/kg | IC50 [7]: 150 nM | IC50 (Cytochrome P450 3A4): < 50 nM | IC50 (Cytochrome P450 2D6): < 50 nM | bioavailability [9]: 71% | inhibition at 1 µM (hERG (KCNH2)): 75% | IC50 (Cytochrome P450 2C9): < 50 nM | IC50 [2]: 2100 nM | half-life [10]: 37.8 min

Structure (SMILES): CN(C)C(=O)c1nc(-c2cccc(-c3ccccc3OC(F)(F)F)c2)cs1
IC50 [2]: 1370 nM

Structure (SMILES): FC(F)(F)Oc1ccccc1-c1cccc(-c2cocn2)c1
IC50 [2]: 1940 nM

Structure (SMILES): Cc1nc(-c2cccc(-c3ccccc3OC(F)(F)F)c2)cs1
IC50 [2]: 2990 nM

Structure (SMILES): Nc1nc(-c2cccc(-c3ccccc3OC(F)(F)F)c2)cs1
inhibition [3]: 84%

Structure (SMILES): Cn1cc(-c2cccc(-c3ccccc3C(F)(F)F)c2)nc1C(N)=O
IC50 [2]: 1250 nM

Structure (SMILES): NC(=O)N/N=C/c1ccc(Oc2ccc(F)cc2)cc1
Ki [1]: 360 nM

Structure (SMILES): CS(=O)(=O)Nc1nc(-c2cccc(-c3ccccc3OC(F)(F)F)c2)cs1
inhibition [3]: 65%

Structure (SMILES): OCc1nc(-c2cccc(-c3ccccc3OC(F)(F)F)c2)cs1
IC50 [2]: 1800 nM

Structure (SMILES): FC(F)(F)Oc1ccccc1-c1cccc(-c2cscn2)c1
IC50 [2]: 2160 nM

Structure (SMILES): NC(=O)c1nc(-c2cccc(-c3ccccc3C(F)(F)F)c2)c(Cl)[nH]1
IC50 [2]: 2770 nM

Structure (SMILES): NC(=O)c1nc(-c2cccc(-c3ccccc3OC(F)(F)F)c2)cs1
clearance [8]: 52 mL/min/kg | IC50 [7]: 15 nM | IC50 (Cytochrome P450 3A4): 18000 nM | IC50 (Cytochrome P450 2D6): 48000 nM | bioavailability [9]: 20% | remaining at 2 h [11]: < 5% | inhibition in vivo at 10 mg/kg (Rattus norvegicus): 61% | inhibition at 1 µM (hERG (KCNH2)): 0.5% | remaining at 1 h [12]: 68% | IC50 (Cytochrome P450 2C9): 16000 nM | remaining at 1 h [13]: 47% | remaining at 1 h [14]: 10% | IC50 [2]: 230 nM (2×) and 228 nM | half-life [10]: 79.8 min

Structure (SMILES): Cc1sc(C(N)=O)nc1-c1cccc(-c2ccccc2OC(F)(F)F)c1
IC50 [2]: 430 nM

Continued, in another order:

Ki [1]: 20 nM
Structure (SMILES): O=C1NC(=O)/C(=C/c2cccc(-c3ccccc3OC(F)(F)F)c2)S1

IC50 [2]: 490 nM
Structure (SMILES): Cn1cc(-c2ccc(F)c(-c3ccccc3OC(F)(F)F)c2)nc1C(N)=O

IC50 [2]: 1260 nM
Structure (SMILES): FC(F)(F)Oc1ccccc1-c1cccc(-c2csc(-c3cnccn3)n2)c1

inhibition [3]: 14%
Structure (SMILES): FC(F)(F)Oc1ccccc1-c1cccc(-c2c[nH]cn2)c1

IC50 [2]: 620 nM
Structure (SMILES): NC(=O)Cc1nc(-c2cccc(-c3ccccc3OC(F)(F)F)c2)cs1

inhibition [3]: 6.3%
Structure (SMILES): FC(F)(F)Oc1ccccc1-c1cccc(-c2csc(-c3ncccn3)n2)c1

inhibition [3]: 37%
Structure (SMILES): Nc1nc(-c2cccc(-c3ccccc3OC(F)(F)F)c2)co1

IC50 [2]: 2140 nM
Structure (SMILES): Cc1nc(-c2cccc(-c3ccccc3OC(F)(F)F)c2)co1

half-life [4]: 44.4 min | bioavailability [5]: 22% | clearance [6]: 112 mL/min/kg | IC50 [7]: 50 nM | IC50 (Cytochrome P450 3A4): > 50000 nM | IC50 (Cytochrome P450 2D6): > 50000 nM | IC50 (Cytochrome P450 2C9): 8790 nM | IC50 [2]: 260 nM
Structure (SMILES): NC(=O)c1csc(-c2cccc(-c3ccccc3OC(F)(F)F)c2)n1
inhibition at 1 µM (hERG (KCNH2)): 55%

inhibition [3]: 8%
Structure (SMILES): CCOC(=O)c1nc(-c2cccc(-c3ccccc3OC(F)(F)F)c2)c(C)s1

inhibition [3]: 8%
Structure (SMILES): N#CCc1nc(-c2cccc(-c3ccccc3OC(F)(F)F)c2)cs1

inhibition [3]: 21%
Structure (SMILES): FC(F)(F)Oc1ccccc1-c1cccc(-c2csc(-c3ccccn3)n2)c1

IC50 [2]: 5310 nM
Structure (SMILES): FC(F)(F)c1ccccc1-c1cccc(-c2cocn2)c1
